Assay results reported in patent US8110543B2, “Anti-invasive and anti-angiogenic compositions” (Angstrom Pharmaceuticals, Inc., priority 1997, dated 2012).

Columns and labels:
HUVEC = HUVEC proliferation assay; format: cell-based, human
Description: HUVEC were plated on gelatin and allowed to adhere for 4 hrs in the presence of 2% FBS. bFGF (1 ng/mL) and the test compounds were added after 4 hours and the % proliferation (where bFGF induced proliferation was 100% and proliferation in the absence of bFGF was 0) was determined using MTS. FIG. 4: the Å6 (50 μg/mL) concentration was kept constant and the concentration of cisplatin (“CDDP”) was varied; FIG. 5: CDDP was kept constant at a sub-optimal dose (1 μg/mL) and Å6 was varied.
Å6 was tested for its ability to inhibit HUVEC proliferation.

[1] = tested on: MDA-MB-231 human breast cancer cells; assay: Matrigel invasion assay, MDA-MB-231 cells; format: cell-based; conditions: FIG. 7
Description: (§1) Several peptides were tested for anti-invasive capacity in a Matrigel® invasion assay system as indicated above (Kleinman et al., supra; Parish et al., supra). Several invasive human tumor lines (PC-3, MDA-MB-231) and non-human tumors (3LL, Mat B-III) were examined. The rat breast cancer line Mat B III and the human prostate cancer line PC-3 were initially used.
(§2) Tumor cells (5×10^5/mL, in a volume of 200 μL) in serum-free RPMI 1640 medium were added to a disposable transwell invasion chamber coated with Matrigel® (Becton Dickinson, Lincoln Park, N.J.). The invasion chambers were placed in 24-well tissue culture plates filled with serum-free RPMI-1640 and the plates were placed in an atmosphere of 5% CO2 in humidified air at 37° C. for 48-72 hours. The chambers were then removed, inverted, and the cells which had invaded (and now appeared on the bottom face of the invasion chamber) were fixed and stained using Diff-Quick® (Scientific Products). Cells were counted in 10 different fields on each filter and an average obtained.

plasmin = plasmin (Homo sapiens, UniProt P00747); assay: Plasmin activity; format: biochemical
plasmin, sequence (P00747 97-580 limits assumed, species assumed): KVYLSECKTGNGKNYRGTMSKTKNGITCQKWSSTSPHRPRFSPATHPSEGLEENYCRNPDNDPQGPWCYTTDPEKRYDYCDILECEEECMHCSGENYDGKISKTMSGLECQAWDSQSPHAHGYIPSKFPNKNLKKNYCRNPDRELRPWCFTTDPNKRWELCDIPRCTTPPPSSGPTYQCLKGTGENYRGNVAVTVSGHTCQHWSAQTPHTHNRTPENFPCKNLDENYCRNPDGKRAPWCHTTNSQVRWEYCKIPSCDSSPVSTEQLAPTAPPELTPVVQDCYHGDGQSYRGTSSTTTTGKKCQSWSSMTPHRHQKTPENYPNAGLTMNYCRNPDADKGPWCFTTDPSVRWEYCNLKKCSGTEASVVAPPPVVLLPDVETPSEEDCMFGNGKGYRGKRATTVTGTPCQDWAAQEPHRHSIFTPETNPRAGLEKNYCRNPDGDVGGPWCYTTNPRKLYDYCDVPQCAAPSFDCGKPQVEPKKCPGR
plasmin, sequence (P00747 581-810 limits assumed, species assumed): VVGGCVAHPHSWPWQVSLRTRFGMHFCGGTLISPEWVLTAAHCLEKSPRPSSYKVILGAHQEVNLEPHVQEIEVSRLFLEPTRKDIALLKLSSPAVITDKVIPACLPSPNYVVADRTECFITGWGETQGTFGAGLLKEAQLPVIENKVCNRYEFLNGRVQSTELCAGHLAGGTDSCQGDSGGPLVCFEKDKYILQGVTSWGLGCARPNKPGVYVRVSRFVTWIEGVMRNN

3LL cells = assay: Tumor angiogenesis (microvessel density) in 3LL model; format: in vivo, Mice; conditions: 100-250 mg/kg/day; compared to controls
Description: Angiogenesis is measured by determining microvessel density using immunostaining for CD31 (also known as platelet-endothelial cell adhesion molecule or PECAM). Results are reported as the average microvessel density of 5 fields each from 5 different sections (Penfold et al., 1996). Typically, the whole tumor is excised, sectioned and the sections examined histologically for microvessel density using appropriate stains or labels for other markers.
Angiogenesis induced by tumor growth and metastasis in vivo is examined in the models systems described above. Mice injected with 3LL cells are treated either with peptide or with vehicle and are sacrificed at various time points. Angiogenesis is assessed by determining microvessel density (MVD) using an antibody specific for microvascular endothelium or other markers of growing blood vessels, such as PECAM (CD31). Such an antibody is employed in conventional immunohistological methods to immunostain tissue sections as described by Penfold et al., supra. A large number of such antibodies is commercially available, for example the JC70 mAb. The MVD are correlated with other measures of tumor behavior including lymph node status and primary tumor size and rate of growth. In humans as reported by Penfold et al., supra, tumor MVD correlates with lymph node metastasis and is independent of tumor size, growth rate or type of histological differentiation.
The compounds are given i.v., i.p., or by osmotic minipump Typical dosages are 100-250 mg/kg/day. At various time points, two animals are sacrificed, and the tumor tissue and surrounding tissue is prepared for histological examination. Results are reported as the average microvessel density of 5 fields each from 5 different sections. The following seven compounds are tested: Ac-[…]-Am (SEQ ID NO:2), Ac-[…]-Am (SEQ ID NO: 6) (disubstitution variant at positions 3 and 4), Ac-[…]-Am (SEQ ID NO: 7) (disubstitution variant at positions 7 and 8), Ac-[…]-Am (SEQ ID NO: 8) (substitution variant at position 1), Ac-PSSPPEE-Am (SEQ ID NO: 4) (deletion variant, position 1 of SEQ ID NO:2 deleted), Ac-KPSSPPE-Am (SEQ ID NO: 5) (deletion variant, position 8 of SEQ ID NO:2 deleted), and Ac-[…]-Am (SEQ ID NO:1).

HepG2 = assay: In vitro proliferation, HepG2 cells; format: cell-based
Description: (§3) Å6 was also tested for its ability to inhibit the proliferation of cells other than endothelial cells in vitro.

MDA-MB-231 = assay: In vitro proliferation, MDA-MB-231 cells; format: cell-based, human
Description: as §3

Mat B-III tumors = assay: Rat syngeneic Mat B-III breast cancer model; format: in vivo
Description: The effects of the compounds are tested on tumor progression in a rat syngeneic model of breast cancer (Xing and Rabbani, 1996). Mat BIII rat breast tumor cells (1×10^6 cells in PBS, 0.1 mL per rat) are inoculated into the mammary fat pads of female Fisher rats. The test compound is dissolved in PBS (200 mM stock), sterile filtered and dispensed in vivo at a dose of up to about 100 mg/kg/day) using a 14-day Alza osmotic mini-pump implanted intraperitoneally at the time of inoculation. Control animals receive vehicle (PBS) alone. Animals are euthanized at day 14 and examined for metastasis in the spleen, lungs, liver, kidney and lymph nodes. In addition, the primary tumors are excised, quantitated, and prepared for immunohistochemistry.
The rat syngeneic breast cancer system (Xing and Rabbani, 1996) employs Mat BIIIrat breast cancer cells. When Mat B-III cells (1×10^6 cells) are inoculated into the mammary fat pad of female Fisher rats, they form large tumors which metastasize to regional lymph nodes (LNs) and other distal sites within 14-20 days.
Å6 was initially delivered prophylactically (infusion starting on the day of tumor inoculation) using an Alzet mini-pump that delivered 75 mg/kg/day. […] Metastasis was quantitated by counting the number of macroscopic foci without regard for their size.
Estrogen receptor-positive Mat B-III tumors were used to test combination treatment with Å6 (75 mg/kg/day) and TAM (3 mg/kg/day). In contrast to previous studies, the Mat B-III tumors (inoculated in the mammary fat pad) were staged to 40-50 mm^3 prior to the initiation of treatment. Treatment was continued for 8 days during which time primary tumor growth was measured using calipers (FIG. 14).

scuPA-suPAR = scuPA-suPAR (Homo sapiens, UniProt P00749); assay: Activation of plasminogen by scuPA-suPAR with small chromogenic substrates; format: biochemical
[2] = tested on: bFGF-induced angiogenesis; assay: Chick CAM angiogenesis assay; format: in vivo
Description: Major vessels were quantitated at this time.
A: Control CAM; B: CAM treated with 1.2 μg/disk of Å6.
Å6 was tested for its effect on bFGF-induced angiogenesis in a 7 day old chick CAM assay.

3LL = assay: Matrigel invasion assay, 3LL cells; format: cell-based, mouse; conditions: all the cell lines tested
Description: as §1, §2

[3] = Alzet mini-pump 75 mg/kg/day from the day of tumor inoculation
[4] = comparative analysis of related peptides

Ac-KPSSPPEE-NH2 [Å6, CH3CO-Lys-Pro-Ser-Ser-Pro-Pro-Glu-Glu-NH2]
potentiation of the anti-proliferative activity of cisplatin (CDDP) against endothelial cells (HUVEC; CDDP 1 μg/mL, Å6 varied (FIG. 5)): did not potentiate
inhibition of HUVEC proliferation (HUVEC; concentrations as high as 312 μg/mL (340 μM), gelatin, 2% FBS): No inhibition
invasion of MDA-MB-231 cells through Matrigel [1]: inhibits the invasion
effect on the activity of plasmin directly (plasmin): did not affect
number of microvessels in the region of the primary tumor (3LL cells): significant reduction
anti-proliferative effect, HepG2 (HepG2): No anti-proliferative effects
anti-proliferative effect, MDA-MB-231 (MDA-MB-231): No anti-proliferative effects
LN metastasis (Mat B-III tumors; [3]): inhibition
tumor growth (Mat B-III tumors; [3]): inhibition
number of metastases in the spleen, lungs, liver, kidney and lymph nodes (Mat B-III tumors; [4]): significant reduction
size of the primary tumor (Mat B-III tumors; [4]): significant reduction
necrosis of the primary tumor periphery (Mat B-III tumors; histological analysis, Å6-treated rats): 50-75%
decrease in Factor VIII-positive foci (Mat B-III tumors; tumor sections): 40-60%
TUNEL assay for apoptosis of tumor cells (Mat B-III tumors; Å6-treated groups): stained positive
effect on activation of plasminogen by scuPA-suPAR (scuPA-suPAR): did not affect
bFGF-induced angiogenesis (major vessel formation) in CAM ([2]; 7 day old chick CAM, 4 days): inhibits angiogenesis
branching morphogenesis in CAM ([2]; qualitative, stereomicroscopic images): inhibited branching morphogenesis
invasion of 3LL cells through Matrigel (3LL): inhibited
